# Reference: patent publication US6737383B1, “Herbicidal oxadiazolidines” (priority 1999, dated 2004)
# Key:
# surinam grass = experiment: Test B pre/postemergence surinam grass; type: in vivo, Brachiaria decumbens
# In short: (§1)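 Response is a visual 0-to-10 score relative to untreated plants, where 0 means no effect and 10 means complete control, taken twelve to sixteen days after application. Treatments went onto soil at planting and onto foliage of 1- to 4-leaf plants, using a surfactant-containing non-phytotoxic solvent.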
# velvetleaf = experiment: Test B pre/postemergence velvetleaf; type: in vivo, Abutilon theophrasti; settings: for Plant response rating, Velvetleaf: Postemergence
# In short: as §1
# morningglory = experiment: Test B pre/postemergence morningglory; type: in vivo, Ipomoea hederacea
# In short: as §1
# corn = experiment: Test B pre/postemergence corn; type: in vivo, Zea mays
# In short: as §1
# wild oat = experiment: Test B pre/postemergence wild oat; type: in vivo, Avena fatua; settings: for Plant response rating, Wild oats: Postemergence
# In short: as §1
# wheat = experiment: Test B pre/postemergence wheat; type: in vivo, Triticum aestivum; settings: for Plant response rating, Wheat: Postemergence
# In short: as §1
# sugar beet = experiment: Test B pre/postemergence sugar beet; type: in vivo, Beta vulgaris; settings: for Plant response rating, Sugarbeets: Postemergence
# In short: as §1
# blackgrass = experiment: Test B pre/postemergence blackgrass; type: in vivo, Alopecurus myosuroides
# In short: as §1
# pigweed = experiment: Test B pre/postemergence pigweed; type: in vivo, Amaranthus retroflexus; settings: for Plant response rating, Redroot pigweed: Postemergence
# In short: as §1
# purple nutsedge = experiment: Test B pre/postemergence purple nutsedge; type: in vivo, Cyperus rotundus
# In short: as §1
# cocklebur = experiment: Test B pre/postemergence cocklebur; type: in vivo, Xanthium strumarium
# In short: as §1
# soybean = experiment: Test B pre/postemergence soybean; type: in vivo, Glycine max; settings: for Plant response rating, Soybean: Postemergence
# In short: as §1
# giant foxtail = experiment: Test B pre/postemergence giant foxtail; type: in vivo, Setaria faberii
# In short: as §1
# rape = experiment: Test B pre/postemergence rape; type: in vivo, Brassica napus
# In short: as §1
# bedstraw = experiment: Test B pre/postemergence bedstraw; type: in vivo, Galium aparine
# In short: as §1
# crabgrass = experiment: Test B pre/postemergence crabgrass; type: in vivo, Digitaria sanguinalis
# In short: as §1
# [1] = Postemergence, Rate 62 g/ha, scale of 0 to 10, 0 is no effect, 10 is complete control
# [2] = Postemergence, Rate 125 g/ha, scale 0 to 10, 0 is no effect, 10 is complete control
# [3] = Postemergence, Rate 500 g/ha, scale of 0 to 10 where 0 is no effect and 10 is complete control
# [4] = Preemergence, Rate 62 g/ha, scale 0 to 10 (0 no effect, 10 complete control)
# [5] = Preemergence, Rate 125 g/ha, scale 0 to 10, 0 is no effect, 10 is complete control
# [6] = Preemergence, Rate 500 g/ha, scale of 0 to 10 where 0 is no effect and 10 is complete control
# [7] = Rate 250 g/ha, Postemergence, scale of 0 to 10 where 0 is no effect and 10 is complete control
# [8] = Rate 500 g/ha, scale of 0 to 10 where 0 is no effect and 10 is complete control
# [9] = Rate 250 g/ha, scale of 0 to 10 where 0 is no effect and 10 is complete control
structure (smiles),measurement,setting,value
COC(=O)CCCn1c(=O)on(C(=O)N(c2ccccc2)C(C)C)c1=O [Compound 572],B. signalgrass plant response rating,surinam grass; [1],0
same,B. signalgrass plant response rating,surinam grass; [2],0
same,"Plant response rating, B. signalgrass",surinam grass; [3],0
same,B. signalgrass plant response rating,surinam grass; [4],0
same,B. signalgrass plant response rating,surinam grass; [5],0
same,"B. signalgrass plant response rating (0 to 10 scale, 0 is no effect, 10 is complete control)","surinam grass; Preemergence, Rate 250 g/ha",0
same,B. signalgrass plant response rating,surinam grass; [6],0
same,"Plant response rating, B. signalgrass",surinam grass; [7],0
same,"Plant response rating, Velvetleaf",velvetleaf; [8],7
same,Velvetleaf plant response rating,velvetleaf; [4],0
same,Velvetleaf plant response rating,velvetleaf; [5],0
same,Velvetleaf plant response rating (0 to 10 scale),"velvetleaf; Preemergence, Rate 250 g/ha",0
same,Velvetleaf plant response rating,velvetleaf; [6],2
same,"Plant response rating, Velvetleaf",velvetleaf; [9],0
same,Morningglory plant response rating,morningglory; [1],3
same,Morningglory plant response rating,morningglory; [2],3
same,"Plant response rating, Morningglory",morningglory; [3],10
same,Morningglory plant response rating,morningglory; [4],0
same,Morningglory plant response rating,morningglory; [5],0
same,Morningglory plant response rating (0 to 10 scale),"morningglory; Preemergence, Rate 250 g/ha",0
same,Morningglory plant response rating,morningglory; [6],0
same,"Plant response rating, Morningglory",morningglory; [7],5
same,Corn plant response rating,corn; [1],0
same,Corn plant response rating,corn; [2],0
same,"Plant response rating, Corn",corn; [3],0
same,Corn plant response rating,corn; [4],0
same,Corn plant response rating,corn; [5],0
same,Corn plant response rating (0 to 10 scale),"corn; Preemergence, Rate 250 g/ha",0
same,Corn plant response rating,corn; [6],0
same,"Plant response rating, Corn",corn; [7],0
same,"Plant response rating, Wild oats",wild oat; [8],0
same,Wild oats plant response rating,wild oat; [4],0
same,Wild oats plant response rating,wild oat; [5],0
same,Wild oats plant response rating (0 to 10 scale),"wild oat; Preemergence, Rate 250 g/ha",0
same,Wild oats plant response rating,wild oat; [6],0
same,"Plant response rating, Wild oats",wild oat; [9],0
same,"Plant response rating, Wheat",wheat; [8],0
same,Wheat plant response rating,wheat; [4],0
same,Wheat plant response rating,wheat; [5],0
same,Wheat plant response rating (0 to 10 scale),"wheat; Preemergence, Rate 250 g/ha",0
same,Wheat plant response rating,wheat; [6],0
same,"Plant response rating, Wheat",wheat; [9],0
same,"Plant response rating, Sugarbeets",sugar beet; [8],0
same,Sugarbeets plant response rating,sugar beet; [4],0
same,Sugarbeets plant response rating,sugar beet; [5],0
same,Sugarbeets plant response rating (0 to 10 scale),"sugar beet; Preemergence, Rate 250 g/ha",0
same,Sugarbeets plant response rating,sugar beet; [6],0
same,"Plant response rating, Sugarbeets",sugar beet; [9],0
same,Blackgrass plant response rating,blackgrass; [1],0
same,Blackgrass plant response rating,blackgrass; [2],0
same,"Plant response rating, Blackgrass",blackgrass; [3],0
same,Blackgrass plant response rating,blackgrass; [4],0
same,Blackgrass plant response rating,blackgrass; [5],0
same,Blackgrass plant response rating (0 to 10 scale),"blackgrass; Preemergence, Rate 250 g/ha",0
same,Blackgrass plant response rating,blackgrass; [6],0
same,"Plant response rating, Blackgrass",blackgrass; [7],0
same,"Plant response rating, Redroot pigweed",pigweed; [8],0
same,Redroot pigweed plant response rating,pigweed; [4],0
same,Redroot pigweed plant response rating,pigweed; [5],0
same,Redroot pigweed plant response rating (0 to 10 scale),"pigweed; Preemergence, Rate 250 g/ha",0
same,Redroot pigweed plant response rating,pigweed; [6],5
same,"Plant response rating, Redroot pigweed",pigweed; [9],0
same,Nutsedge plant response rating,purple nutsedge; [1],0
same,Nutsedge plant response rating,purple nutsedge; [2],0
same,Nutsedge plant response rating,purple nutsedge; [4],0
same,Nutsedge plant response rating,purple nutsedge; [5],0
same,Nutsedge plant response rating (0 to 10 scale),"purple nutsedge; Preemergence, Rate 250 g/ha",0
same,Nutsedge plant response rating,purple nutsedge; [6],0
same,"Plant response rating, Nutsedge",purple nutsedge; [7],0
same,Cocklebur plant response rating,cocklebur; [1],0
same,Cocklebur plant response rating,cocklebur; [2],0
same,"Plant response rating, Cocklebur",cocklebur; [3],0
same,Cocklebur plant response rating,cocklebur; [4],0
same,Cocklebur plant response rating,cocklebur; [5],0
same,Cocklebur plant response rating (0 to 10 scale),"cocklebur; Preemergence, Rate 250 g/ha",0
same,Cocklebur plant response rating,cocklebur; [6],0
same,"Plant response rating, Cocklebur",cocklebur; [7],0
same,"Plant response rating, Soybean",soybean; [8],7
same,Soybean plant response rating,soybean; [4],0
same,Soybean plant response rating,soybean; [5],0
same,Soybean plant response rating (0 to 10 scale),"soybean; Preemergence, Rate 250 g/ha",0
same,Soybean plant response rating,soybean; [6],0
same,"Plant response rating, Soybean",soybean; [9],5
same,Giant foxtail plant response rating,giant foxtail; [1],0
same,Giant foxtail plant response rating,giant foxtail; [2],0
same,"Plant response rating, Giant foxtail",giant foxtail; [3],0
same,Giant foxtail plant response rating,giant foxtail; [4],0
same,Giant foxtail plant response rating,giant foxtail; [5],0
same,Giant foxtail plant response rating (0 to 10 scale),"giant foxtail; Preemergence, Rate 250 g/ha",4
same,Giant foxtail plant response rating,giant foxtail; [6],7
same,"Plant response rating, Giant foxtail",giant foxtail; [7],0
same,Rape plant response rating,rape; [1],2
same,Rape plant response rating,rape; [2],3
same,"Plant response rating, Rape",rape; [3],4
same,Rape plant response rating,rape; [4],0
same,Rape plant response rating,rape; [5],0
same,Rape plant response rating (0 to 10 scale),"rape; Preemergence, Rate 250 g/ha",0
same,Rape plant response rating,rape; [6],0
same,"Plant response rating, Rape",rape; [7],3
same,Bedstraw plant response rating,bedstraw; [1],0
same,Bedstraw plant response rating,bedstraw; [4],0
same,Bedstraw plant response rating,bedstraw; [5],0
same,Bedstraw plant response rating (0 to 10 scale),"bedstraw; Preemergence, Rate 250 g/ha",0
same,Bedstraw plant response rating,bedstraw; [6],0
same,"Plant response rating, Bedstraw",bedstraw; [7],0
same,Crabgrass plant response rating,crabgrass; [1],0
same,Crabgrass plant response rating,crabgrass; [2],0
same,"Plant response rating, Crabgrass",crabgrass; [3],8
same,Crabgrass plant response rating,crabgrass; [4],0
same,Crabgrass plant response rating,crabgrass; [5],0
same,Crabgrass plant response rating (0 to 10 scale),"crabgrass; Preemergence, Rate 250 g/ha",0
same,Crabgrass plant response rating,crabgrass; [6],0
same,"Plant response rating, Crabgrass",crabgrass; [7],6
